From US20240374487A1, “ANTI-AGING AGENT, COSMETIC PRODUCT, WET TOWEL, AND HYGIENE PRODUCT” (VB JAPAN TECHNOLOGY CO., LTD., priority 2021, published 2024)

Experiments:
intracellular ROS [1] = experiment: Intracellular ROS production against hydrogen peroxide (DCF-DA); type: cell-based, human
Procedure: (§1) Measurement of intracellular ROS was performed using fluorescence using dichlorofluorescin diacetate (DCF-DA; Invitrogen, Carlsbad, CA, USA). Specifically, cells were washed with PBS, and then incubated with 10 μM DCF-DA at 37° C. for 20 minutes. The intracellular ROS level was measured at an excitation wavelength of 525 nm using fluorescence intensity using the micro plate reader (SYNERGY/HT, BioTek, Japan).
(§2) Normal human dermal fibroblasts were cultured for 2 hours in a culture solution to which 0.2 mM hydrogen peroxide was added, then washed off with PBS, and replaced with a normal medium to continue the cultivation. VB2 and VB3 were each added at any timing before or after hydrogen peroxide was added, and co-cultured for 4 hours. Thereafter, the cells or the culture solution were recovered.
According to the procedure described in “Measurement of Cell Viability” above, normal human dermal fibroblasts were treated and cultured (co-culture), and cells or the culture solution was recovered. The concentrations of VB2 and VB3 used and the notation of the samples in FIGS. 6 and 7, which are graphs showing the results, are also similar to the above “Measurement of Cell Viability”.
The measurement of intracellular ROS and the measurement of superoxide (SOD) were performed by the same methods as the methods described in “Measurement of Intracellular Reactive Oxygen (ROS) Production and Superoxide (SOD) against AGE” above, respectively.
FIGS. 6 and 7 show the results of each sample when Control is 100%.

RAGE = RAGE mRNA level by qRT-PCR in AGE-treated fibroblasts; type: cell-based, human; conditions: co-existence with AGE 100 μg/mL, 4 hours, compared with AGE single stimulation group
Procedure: (§3) Normal human dermal fibroblasts (NHDF), juvenile foreskin (C-12300, PromoCell) were cultured in a dedicated medium, Fibroblast Growth Medium (C-23010, PromoCell) at 37° C. in a 5% CO2 incubator.
(§4) First, as a co-existence group of VB and AGE, normal human dermal fibroblasts were treated with AGE (100 μg/mL), and the above VB2 (concentration after dilution: 115 μg/ml) and VB3 (concentration after dilution: 1000 μg/mL) diluted to an accurate 1/1000 amount were each added and retained at 37° C. for 4 hours. […]
(§5) Then, total RNA was extracted from the cells using Trizol reagent (Ambion), and mRNA levels of AGE receptor (FEEL-1, FEEL-2, CD-36, AGE-R1, AGE-R2, AGE-R3 and RAGE) and heat shock protein (Hsp104, gp96, Hsp90, Hsp70, Hsp60, and Hsp32) were measured by qRT-PCR (one-step quantitative reverse transcription-polymerase chain reaction) method. […]
(§6) The qRT-PCR method used for the measurement of AGE receptor, heat shock protein, aquaporin, hyaluronic acid, and Elastin will be described. In the qRT-PCR method, 500 ng of the obtained total RNA was used as a template for PCR, and one step RT-PCR capable of performing CDNA synthesis by a reverse transcription reaction (Reverse Transcriptase; RT reaction) and quantitative PCR in one test tube was performed using Luna Universal One-Step qRT-PCR Kit. […]

intracellular ROS [2] = experiment: Intracellular ROS against AGE (DCF-DA fluorescence); type: cell-based, human; conditions: AGE 100 μg/mL, 4 hours, FIG. 3
Procedure: as §3
Normal human dermal fibroblasts were treated with AGE (100 μg/mL) and maintained at 37° C. for 4 hours with the addition of VB2 and VB3, respectively. Here, VB2 and VB3 were added at concentrations of 1 μg/mL, 10 μg/mL, 100 μg/mL, and 300 μg/mL, respectively. In FIGS. 3 and 4, which are graphs showing the results, those to which VB2was added were denoted as “VB2-AGE”, and those to which VB3 was added were denoted as “VB3-AGE”.
As Control, measurement was also performed on normal human dermal fibroblasts which were not treated with AGE and were held at 37° C. for 4 hours without addition of VB2 or VB3, and as an AGE single stimulation group, measurement was also performed on normal human dermal fibroblasts which were treated with AGE (100 μg/mL) and were held at 37° C. for 4 hours without addition of VB2 or VB3 (in FIGS. 3 and 4, it is denoted as “AGE”.).
as §1, with “Specifically, cells were washed with PBS, and then incubated with 10 μM DCF-DA at 37° C. for 20 minutes.” left out

FEEL-1 = FEEL-1 mRNA level by qRT-PCR in AGE-treated fibroblasts; type: cell-based, human; conditions: co-existence with AGE 100 μg/mL, 4 hours, compared with AGE single stimulation group
Procedure: as §3, §4, §5, §6

AQP-1 = AQP-1 mRNA level under oxidative stress (qRT-PCR); type: cell-based, human
Procedure: as §2
(§7) According to the procedure described in “Measurement of Cell Viability” above, normal human dermal fibroblasts were treated and cultured (co-culture), and cells or the culture solution was recovered. The notation of the sample in FIGS. 8 and 9, which are graphs showing the results, is also the same as in the “Measurement of Cell Viability” described above.
(§8) The measurement of aquaporin was performed for AQP-1 and AQP-3 by a qRT-PCR method, and the measurement result was obtained by a ΔΔCt method. […] The qRT-PCR method is s specifically described in “qRT-PCR method” described later.
(§9) The qRT-PCR method used for the measurement of AGE receptor, heat shock protein, aquaporin, hyaluronic acid, and Elastin will be described. In the qRT-PCR method, 500 ng of the obtained total RNA was used as a template for PCR, and one step RT-PCR capable of performing CDNA synthesis by a reverse transcription reaction (Reverse Transcriptase; RT reaction) and quantitative PCR in one test tube was performed using Luna Universal One-Step qRT-PCR Kit.
(§10) As a PCR device, Thermal Cycler Dice Real Time System II manufactured by Takara was used. As one reaction system, 10 μL of Luna Universal One-Step Reaction Mix (2×), 1 μL of Luna WarmStart RT Enzyme Mix (20×), 0.8 μL of Forward primer (10 μM), 0.8 μL of Reverse primer, and Total RNA as a template for the PCR were used, and the total amount was adjusted to 20 μL in Nuclease-free Water.
(§11) The reaction was performed under the conditions of 1 cycle of 30 seconds at 95° C., and further cycles of 5 seconds at 95° C. and 30 seconds at 60° C. for 50 cycles. A variation in mRNA expression by 4 times or more (2 cycles as PCR reaction) was determined as a significant difference.

SOD = SOD amount against hydrogen peroxide (SOD Assay Kit); type: cell-based, human; conditions: added before and after 0.2 mM hydrogen peroxide, 1-300 μg/mL (H2O2 only 56% of Control)
Procedure: Superoxide (SOD) was measured using SOD Assay Kit (Cayman Chemical, Ann arbor, MI, USA). Cells that had been subjected to various treatments were incubated for 24 hours, and then a Lysis buffer was added, homogenized, and centrifuged. Then, 10 μL of each sample was mixed with 200 μL of xanthine oxidase at room temperature. After 30 minutes, the absorbance at 450 nm was measured.
as §2
According to the procedure described in “Measurement of Cell Viability” above, normal human dermal fibroblasts were treated and cultured (co-culture), and cells or the culture solution was recovered. The concentrations of VB2 and VB3 used and the notation of the samples in FIGS. 6 and 7, which are graphs showing the results, are also similar to the above “Measurement of Cell Viability”. […]

hyaluronic acid = experiment: Hyaluronic acid secreted into culture supernatant (ELISA); type: cell-based, human
Procedure: as §2
(§12) According to the procedure described in “Measurement of Cell Viability” above, normal human dermal fibroblasts were treated and cultured (co-culture), and cells or the culture solution was recovered. The concentrations of VB2 and VB3 used and the notation of the samples in FIGS. 10 and 11, which are graphs showing the results, are also similar to the above “Measurement of Cell Viability”.
(§13) The production amounts of hyaluronic acid and Elastin were measured by an ELISA method. The results of measuring the amount of hyaluronic acid secreted from normal human dermal fibroblasts into the culture supernatant by the ELISA method are shown in FIG. 10, and the results of measuring the amount of intracellular Elastin production by the ELISA method are shown in FIG. 11.

[3] = test system: AGE receptor (FEEL-1, FEEL-2, CD-36, AGE-R1, AGE-R2, AGE-R3 and RAGE); experiment: mRNA levels of AGE receptors by qRT-PCR in normal human dermal fibroblasts; type: cell-based; conditions: VB alone, no AGE, 37° C. 4 hours, compared with untreated group
Procedure: as §3, §4, §5, §6

FEEL-2 = FEEL-2 mRNA level by qRT-PCR in AGE-treated fibroblasts; type: cell-based, human; conditions: co-existence with AGE 100 μg/mL, 4 hours, compared with AGE single stimulation group
Procedure: as §3, §4, §5, §6

[4] = test system: heat shock protein (Hsp104, gp96, Hsp90, Hsp70, Hsp60, and Hsp32); experiment: mRNA levels of heat shock proteins by qRT-PCR in fibroblasts; type: cell-based, human; conditions: 4 hours
Procedure: as §3
First, as a co-existence group of VB and AGE, normal human dermal fibroblasts were treated with AGE (100 μg/mL), and the above VB2 (concentration after dilution: 115 μg/ml) and VB3 (concentration after dilution: 1000 μg/mL) diluted to an accurate 1/1000 amount were each added and retained at 37° C. for 4 hours.
In addition, as the VB single stimulation group, normal human dermal fibroblasts were not treated with AGE, and the above VB2 and VB3 diluted to an accurate 1/1000 amount were each added and held at 37° C. for 4 hours. Furthermore, as the AGE single stimulation group, normal human dermal fibroblasts were treated with AGE and kept at 37° C. for 4 hours without addition of VB2 or VB3. In addition, as an untreated group, normal human dermal fibroblasts were not treated with AGE, and were kept at 37° C. for 4 hours without adding VB2 or VB3.
Then, total RNA was extracted from the cells using Trizol reagent (Ambion), and mRNA levels of AGE receptor (FEEL-1, FEEL-2, CD-36, AGE-R1, AGE-R2, AGE-R3 and RAGE) and heat shock protein (Hsp104, gp96, Hsp90, Hsp70, Hsp60, and Hsp32) were measured by qRT-PCR (one-step quantitative reverse transcription-polymerase chain reaction) method.
The measurement results for AGE receptor are shown in FIG. 1, and the measurement results for heat shock protein are shown in FIG. 2. In FIG. 1 and FIG. 2, for the co-existence group of AGE and VB, samples to which VB2 and VB3 were added are indicated as VB2(+)AGE and VB3(+)AGE, respectively, and these values were shown in comparison with the AGE single stimulation group. In addition, for the VB single stimulation group, samples to which VB2 and VB3 were added were indicated as VB2 alone and VB3 alone, respectively, and these values were shown in comparison with the untreated group.
as §9
As a PCR device, Thermal Cycler Dice Real Time System II manufactured by Takara was used. […]
as §11

Elastin = experiment: Intracellular Elastin production (ELISA); type: cell-based, human
Procedure: as §2, §12, §13

[5] = test system: normal human dermal fibroblasts; experiment: Cell viability under hydrogen peroxide oxidative stress (Cell counting-8 kit); type: cell-based; conditions: for cell viability, trend: 1-300 μg/mL
Procedure: as §3, §2
In FIG. 5 which is a graph showing the results, a sample obtained by adding VB2 or VB3 after adding hydrogen peroxide was denoted as “H2O2-VB2” and “H2O2-VB3”, respectively, and a sample obtained by adding hydrogen peroxide after adding VB2 or VB3 was denoted as “VB2-H2O2” and “VB3-H2O2”, respectively.
Here, VB2 and VB3 were added at concentrations of 1 μg/mL, 10 μg/mL, 100 μg/mL, and 300 μg/mL, respectively.
The normal human dermal fibroblasts to which neither hydrogen peroxide nor VB2 nor VB3 was added were treated in the same manner as described above, and measured as Control. In addition, a sample to which VB2 or VB3 was not added (in FIG. 5, it is denoted as “H2O2”) was also treated in the same manner as described above, and measurement was performed.
The number of surviving cells in normal human dermal fibroblasts was measured using Cell counting −8 kit (DOJINDO: , Japan).

AQP-3 = AQP-3 mRNA level under oxidative stress (qRT-PCR); type: cell-based, human
Procedure: as §2, §7, §8, §9, §10, §11

[6] = added before or after 0.2 mM hydrogen peroxide
[7] = added in advance before oxidative stress, compared with addition after
[8] = added in advance before applying oxidative stress

With K11H[(VO)3(SbW9O33)2] [VB2] the ROS production (intracellular ROS [1]; added before and after 0.2 mM hydrogen peroxide, 1-300 μg/mL) was “suppressed in a concentration-dependent manner”, the ROS production (intracellular ROS [1]; treatment in advance before oxidative stress, compared with addition after) was “further suppressed” and the “mRNA level of RAGE” value (RAGE) was “significantly increased”. For the same substance, the “intracellular ROS under AGE stimulation” value (intracellular ROS [2]) was “suppress the increase in ROS”, the “mRNA level of FEEL-1” value (FEEL-1) was “significantly increased” and the “mRNA level of AQP-1” value (AQP-1; [6]) was “increased”. For the same substance, the “AQP-1 mRNA repair ability, addition before vs after oxidative stress” value (AQP-1; [7]) was “tended to have a stronger repair ability”, the SOD amount (SOD) was “tended to be recovered in a concentration-dependent manner” and the “amount of hyaluronic acid” value (hyaluronic acid; 0.2 mM hydrogen peroxide oxidative stress, culture supernatant) was “tended to be recovered”. The “hyaluronic acid repair ability, addition before vs after oxidative stress” value (hyaluronic acid; [7]) was “tended to have a stronger repair ability”, the “mRNA expression of AGE receptor” value [3] was “did not affect” and the “mRNA level of FEEL-2” value (FEEL-2) was “significantly increased”. The “mRNA expression of Hsp” value ([4]; VB alone, no AGE, compared with untreated group) was “did not affect”, the “mRNA levels of all Hsps other Hsp 90 among the examined Hsps” value ([4]; co-existence with AGE 100 μg/mL, compared with AGE single stimulation group) was “significantly increased” and the Elastin production amount (Elastin; added after application of oxidative stress (H2O2 only 56% of Control)) was “could not be recovered”. The Elastin production amount (Elastin; [8]) was “significant recovery”, the “concentration at which Elastin production amount was significantly higher than Control” value (Elastin; [8]) was ≥ 100 µg/mL and the maximum cell viability ([5]; added after 0.2 mM hydrogen peroxide, 300 μg/mL, % of Control (H2O2 only 59%)) was 76%. The “cell viability, trend” value ([5]; added after 0.2 mM hydrogen peroxide) was “increased in a concentration-dependent manner”, the “cell viability, trend” value ([5]; added in advance before 0.2 mM hydrogen peroxide) was “significant increase in a concentration-dependent manner” and the “mRNA level of AQP-3” value (AQP-3; [6]) was “increased”. For the same substance, the “AQP-3 mRNA repair ability, addition before vs after oxidative stress” value (AQP-3; [7]) was “tended to have a stronger repair ability”.
